Test results as given in ChEMBL document CHEMBL4177594, “Design, synthesis, and evaluation of salicyladimine derivatives as multitarget-directed ligands against Alzheimer's disease” (Bioorg Med Chem, 2017).

What was measured:
[1] = target: T1, Amine oxidase [flavin-containing] B (Homo sapiens, UniProt P27338); test: Inhibition of human MAO-B using p-tyramine as substrate preincubated for 15 mins followed by substrate addition measured after 20 mins by fluorescence-based Amplex Red MAO assay
T1 sequence (P27338 whole entry): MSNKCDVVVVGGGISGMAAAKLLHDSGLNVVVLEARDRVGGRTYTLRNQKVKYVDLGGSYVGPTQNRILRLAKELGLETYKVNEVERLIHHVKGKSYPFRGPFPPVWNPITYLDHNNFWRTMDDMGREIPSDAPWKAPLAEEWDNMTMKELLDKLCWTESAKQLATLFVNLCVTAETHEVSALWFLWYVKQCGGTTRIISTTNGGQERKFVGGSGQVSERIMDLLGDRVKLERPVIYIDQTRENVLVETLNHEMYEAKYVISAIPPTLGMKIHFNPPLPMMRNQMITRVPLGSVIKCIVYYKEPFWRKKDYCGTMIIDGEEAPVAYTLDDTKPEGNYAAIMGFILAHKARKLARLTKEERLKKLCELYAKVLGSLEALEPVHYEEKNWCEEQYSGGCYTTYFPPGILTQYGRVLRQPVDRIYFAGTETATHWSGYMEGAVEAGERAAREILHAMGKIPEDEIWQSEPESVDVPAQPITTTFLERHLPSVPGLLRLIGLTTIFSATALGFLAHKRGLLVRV

[2] = target: T2, Amine oxidase [flavin-containing] A (Homo sapiens, UniProt P21397); test: Inhibition of human MAO-A at 200 uM using p-tyramine as substrate preincubated for 15 mins followed by substrate addition measured after 20 mins by fluorescence-based Amplex Red MAO assay
T2 sequence (P21397 whole entry): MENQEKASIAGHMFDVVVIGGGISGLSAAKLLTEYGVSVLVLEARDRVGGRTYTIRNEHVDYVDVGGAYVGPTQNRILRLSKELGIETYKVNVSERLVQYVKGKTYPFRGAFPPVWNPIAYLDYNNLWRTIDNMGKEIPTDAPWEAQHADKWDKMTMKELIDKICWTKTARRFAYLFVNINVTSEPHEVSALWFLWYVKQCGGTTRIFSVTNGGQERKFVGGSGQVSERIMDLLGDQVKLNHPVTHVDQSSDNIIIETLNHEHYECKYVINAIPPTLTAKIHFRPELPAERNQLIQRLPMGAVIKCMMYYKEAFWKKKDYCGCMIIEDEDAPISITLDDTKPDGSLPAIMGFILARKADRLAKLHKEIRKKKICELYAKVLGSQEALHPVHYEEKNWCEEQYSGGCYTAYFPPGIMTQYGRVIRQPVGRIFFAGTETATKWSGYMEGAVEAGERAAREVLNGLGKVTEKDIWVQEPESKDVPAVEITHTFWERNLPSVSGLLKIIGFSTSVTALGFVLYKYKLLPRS

in vitro = test: in vitro; design: dose or concentration left out as unconfirmed; conditions: PAMPA
Description: Permeability of the compound at 100 mg/ml after 16 hrs by BBB-PAMPA method

- IC50 [1]: 1730 nM
- inhibition (INH) [2]: Not Active
- Papp at 16 h (in vitro): 5.75 ×10⁻⁶ cm/s
Structure (SMILES): Oc1ccc(/C=N/c2ccc(OCc3ccccc3)cc2)c(O)c1O
